Literature values, collected in patent publication US20200319065A1, “STABLE DITHIZONE SOLUTIONS AND FORMULATIONS AND METHODS FOR THEIR USE” (CITY OF HOPE, priority 2019, published 2020).

For `S=C(N=Nc1ccccc1)NNc1ccccc1` [DTZ, Dithizone], which “solubility in organic solvents” value (ethanol, chloroform and DMSO) is on record?
The value was “solubilizes partially”.

And the solubility in water (water)?
The solubility in water was “relatively insoluble”.
